Measured values: patent US8349851B2, “JAK kinase modulating compounds and methods of use thereof” (Ambit Biosciences Corp., priority 2009, dated 2013)
Like-named read-outs stand apart in the source and are kept apart here.

What was measured:
[1] = biological target: T1, JAK2 (Homo sapiens, UniProt O60674); experiment: Competition binding assay, JAK2; conditions: read-out: Binding Assay: JAK2 (active_KD)
T1 construct: made in house
From the text: (§1) Competition Binding Assay to Determine Binding Constants (Kd) of the Compounds Against JAK Kinases
(§2) Competition binding assays used herein were developed, validated and performed as described in Fabian et al., Nature Biotechnology 2005, 23,329-336. Kinases were produced as fusions to T7 phage (See, Fabian et al. or WO04/015142) or alternatively, the kinases were expressed in HEK-293 cells and subsequently tagged with DNA for PCR detection (See, WO08/005310). For the binding assays, streptavidin-coated magnetic beads were treated with biotinylated affinity ligands for 30 min at rt to generate affinity resins. The liganded beads were blocked with excess biotin and washed with blocking buffer (SeaBlock (Pierce), 1% BSA, 0.05% Tween 20, 1 mM DTT) to remove unbound ligand and to reduce non-specific binding. […] Test compounds were prepared as 100× stocks in DMSO and rapidly diluted into the aqueous environment. DMSO was added to control assays lacking a test compound. Primary screen interactions were performed in polypropylene 384-well plates in a final volume of 34 μL, while Kd determinations were performed in polystyrene 96-well plates in a final volume of 135 μL. […] The kinase concentration in the eluates was measured by quantitative PCR. Each kinase was tested individually against each compound. Kds were determined using eleven serial threefold dilutions. A selectivity score, which is a quantitative measure of selectivity of a compound against a panel of enzymes, may be calculated for a compound by dividing the number of enzymes for which a compound meets a set criteria, (for example, a binding constant of 100 nM or less), by the total number of enzymes tested.

[2] = test system: csTF-1 cells (GM-CSFR/JAK2/STAT5 pathway); experiment: csTF-1 cell-based reporter assay; set-up: species or system human; conditions: GM-CSF at 2 ng/mL, 4 hours, read-out: Cell Assay: CS0017: CS TF-1 reporter assay: IC50
Protocol: csTF-1 Cell-based Reporter Assay
csTF-1 cells are derived from the human erythroleukemia cell line that is growth dependent on GM-CSF and has an intact GM-CSFR/JAK2/STAT5 pathway. The cell line contains stably integrated beta-lactamase reporter gene under the control of the […] (irf 1) response element recognized by the activated transcription factor STATS. csTF-1 cells (Invitrogen K1219) were washed with assay media (97% OPTIMEM/0.5% dialyzed FBS/0.1 mM NEAA/1 mM Na pyr/P/S) and seeded in the same media at 5×10^5 cell/mL in T150 flask. After 16 hour incubation, cells were seeded at 2×10^5 cell/well in 50 μl volume, into Costar, clear bottom, 96-well assay plates. Serial dilutions of compounds were added to the plates with final DMSO concentration at 0.5% and GM-CSF at 2 ng/mL and the plates were then incubated at […] and 5% CO2 for 4 hours. The plates were brought to room temperature before adding Substrate Mixture according to manufacturer's protocol (Invitrogen, Catalog #K1085). The assay plates containing the substrate mixture were incubated in the dark at room temperature for 2 hours. Blue and green fluorescence was measured with excitation at 409 nm and emission at 460 nm (for blue) and excitation at 409 nm and emission at 530 nm (for green) using Spectra Max Gemini EM.

[3] = biological target: T2, AuroraB (Homo sapiens, UniProt Q96GD4); experiment: Competition binding assay, Aurora B
T2 construct: made in house
From the text: Methods for determining binding constant against Aurora B kinase are known to one of skill in the art. Exemplary methods are described in U.S. provisional application No. 61/294,413, and Fabian et al., Nature Biotechnology 2005, 23,329-336.
as §2

[4] = biological target: T3, JAK3 (Homo sapiens, UniProt P52333); experiment: Competition binding assay, JAK3; conditions: read-out: Binding Assay: JAK3 (active_KD, ENZ)
T3 construct: made in house
From the text: as §1, §2

T3 sequence (P52333 822-1111 limits assumed): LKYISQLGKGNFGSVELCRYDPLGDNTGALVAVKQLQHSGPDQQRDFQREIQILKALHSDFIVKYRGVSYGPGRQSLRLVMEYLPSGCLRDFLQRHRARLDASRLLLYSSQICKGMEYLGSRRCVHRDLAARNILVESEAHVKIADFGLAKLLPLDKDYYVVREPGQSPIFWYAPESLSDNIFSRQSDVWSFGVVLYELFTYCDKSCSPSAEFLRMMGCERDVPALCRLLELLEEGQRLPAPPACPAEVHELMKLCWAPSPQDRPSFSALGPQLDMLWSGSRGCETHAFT
T2 sequence (Q96GD4 whole entry): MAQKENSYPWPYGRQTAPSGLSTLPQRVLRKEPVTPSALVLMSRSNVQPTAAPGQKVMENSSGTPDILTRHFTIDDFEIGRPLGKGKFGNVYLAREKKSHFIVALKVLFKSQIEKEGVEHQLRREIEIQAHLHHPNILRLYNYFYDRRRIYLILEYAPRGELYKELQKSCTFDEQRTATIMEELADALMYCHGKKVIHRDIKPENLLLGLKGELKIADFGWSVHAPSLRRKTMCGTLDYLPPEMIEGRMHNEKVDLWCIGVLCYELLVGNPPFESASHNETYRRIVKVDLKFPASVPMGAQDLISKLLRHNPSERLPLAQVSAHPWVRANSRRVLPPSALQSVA
T1 sequence (O60674 849-1124 limits assumed): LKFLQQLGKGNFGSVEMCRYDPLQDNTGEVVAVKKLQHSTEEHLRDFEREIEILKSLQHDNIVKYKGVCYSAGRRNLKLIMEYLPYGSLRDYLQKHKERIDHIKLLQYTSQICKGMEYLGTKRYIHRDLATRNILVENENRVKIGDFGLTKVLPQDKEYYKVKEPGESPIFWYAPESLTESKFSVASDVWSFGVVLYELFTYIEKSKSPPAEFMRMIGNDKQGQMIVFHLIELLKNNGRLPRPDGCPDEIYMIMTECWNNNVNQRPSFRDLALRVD

Row | Compound | Kd [1] | IC50 ([2]; Homo sapiens) | Kd [3] | Kd [4] | IC50 [2]
1 | Cc1cc(Nc2nc(C(O)c3ccc(F)cc3)nc3cc(OCC(=O)OC(C)(C)C)ccc23)n[nH]1 (racemic) [Example 43, (R,S)-tert-butyl 2-(2-((4-fluorophenyl)(hydroxy)methyl)-4-(5-methyl-1H-pyrazol-3-ylamino)quinazolin-7-yloxy)acetate] | ≤ 1 nM | 100 to 500 nM | > 200 nM | 10 to 100 nM | 
2 | CCOCc1ccc2c(Nc3cc(C)[nH]n3)nc(C(F)(F)c3ccc(F)cc3)nc2c1 [Example 51, 2-(Difluoro(4-fluorophenyl)methyl)-7-(ethoxymethyl)-N-(5-methyl-1H-pyrazol-3-yl)quinazolin-4-amine] | ≤ 1 nM | ≤ 100 nM | 50 to 200 nM | ≤ 10 nM | 
3 | Cc1cc(Nc2nc(C(O)c3ccc(F)cc3)nc3cc(OCCN4CCOCC4)ccc23)n[nH]1 (racemic) [Example 38, (R,S)-(4-fluorophenyl)(4-(5-methyl-1H-pyrazol-3-ylamino)-7-(2-morpholinoethoxy)quinazolin-2-yl)methanol] | ≤ 1 nM | 100 to 500 nM | > 200 nM | ≤ 10 nM | 
4 | Cc1cc(Nc2nc(C(F)(F)c3ccc(F)cc3)nc3cc(F)ccc23)n[nH]1 [Example 20, 2-(difluoro(4-fluorophenyl)methyl)-7-fluoro-N-(5-methyl-1H-pyrazol-3-yl)quinazolin-4-amine] | ≤ 1 nM | ≤ 100 nM | > 200 nM | 10 to 100 nM | 
5 | Cc1cc(Nc2nc(C(O)c3ccc(F)cc3)nc3cc(OCCCO)ccc23)n[nH]1 (racemic) [Example 40, (R,S)-3-(2-((4-fluorophenyl)(hydroxy)methyl)-4-(5-methyl-1H-pyrazol-3-ylamino)quinazolin-7-yloxy)propan-1-ol] | ≤ 1 nM | ≤ 100 nM | > 200 nM | ≤ 10 nM | 
6 | Fc1ccc(C(F)(F)c2nc(Nc3cc[nH]n3)c3ccccc3n2)cc1 [Example 9, 2-(difluoro(4-fluorophenyl)methyl)-N-(1H-pyrazol-3-yl)quinazolin-4-amine] | ≤ 1 nM | ≤ 100 nM | > 200 nM | 10 to 100 nM | 
7 | Cc1cc(Nc2nc(C(N)c3ccc(F)cc3)nc3ccccc23)n[nH]1 (racemic) [Example 14, (R,S)-2-(amino(4-fluorophenyl)methyl)-N-(5-methyl-1H-pyrazol-3-yl)quinazolin-4-amine] | 1 to 10 nM | 100 to 500 nM | > 200 nM | 10 to 100 nM | 
8 | COC(=O)NC(c1ccc(F)cc1)c1nc(Nc2cc(C)[nH]n2)c2ccccc2n1 (racemic) [Example 45, (R,S)-methyl (4-fluorophenyl)(4-(5-methyl-4H-pyrazol-3-ylamino)quinazolin-2-yl) methylcarbamate] | ≤ 1 nM | 100 to 500 nM | > 200 nM | 10 to 100 nM | 
9 | O=C(c1ccc(F)cc1)c1nc(Nc2cc[nH]n2)c2ccccc2n1 [Example 4, (4-(1H-pyrazol-3-ylamino)quinazolin-2-yl)(4-fluorophenyl)methanone] | ≤ 1 nM | ≤ 100 nM | > 200 nM | 10 to 100 nM | 
10 | Cc1cc(Nc2nc(C(O)(c3ccc(F)cc3)c3ccc(F)cc3)nc3ccccc23)n[nH]1 [bis-(4-fluoro-phenyl)-[4-(5-methyl-1H-pyrazol-3-ylamino)-quinazolin-2-yl]-methanol] | > 10 nM | > 500 nM | > 200 nM | > 100 nM | 
11 | Cc1ccc2c(Nc3cc(C)[nH]n3)nc(C(=O)c3ccc(F)cc3)nc2c1 [Example 24, (4-fluorophenyl)(7-methyl-4-(5-methyl-1H-pyrazol-3-ylamino)quinazolin-2-yl)methanone] | ≤ 1 nM | ≤ 100 nM | > 200 nM | 10 to 100 nM | 
12 | COc1ccc2c(Nc3cc(C)[nH]n3)nc(C(F)(F)c3ccc(F)cc3)nc2c1 [Example 32, 2-(difluoro(4-fluorophenyl)methyl)-7-methoxy-N-(5-methyl-1H-pyrazol-3-yl)quinazolin-4-amine] | ≤ 1 nM | ≤ 100 nM | > 200 nM | 10 to 100 nM | 
13 | Cc1cc(Nc2nc(C(O)c3ccc(F)cc3)nc3cc(Cl)ccc23)n[nH]1 (racemic) [Example 52, (R,S) (7-chloro-4-(5-methyl-1H-pyrazol-3-ylamino)quinazolin-2-yl)(4-fluorophenyl)methanol] | 1 to 10 nM | ≤ 100 nM | > 200 nM | 10 to 100 nM | 
14 | COc1cccc2c(Nc3cc[nH]n3)nc(C(=O)c3ccc(F)cc3)nc12 [Example 35, (4-(1H-pyrazol-3-ylamino)-8-methoxyquinazolin-2-yl)(4-fluorophenyl)methanone] | > 10 nM | > 500 nM | 50 to 200 nM | > 100 nM | 
15 | Cc1cc(Nc2nc(C(O)c3ccc(F)cc3)nc3cccc(F)c23)n[nH]1 (racemic) [Example 16, (R,S)-(5-fluoro-4-(5-methyl-1H-pyrazol-3-ylamino)quinazolin-2-yl)(4-fluorophenyl)methanol] | > 10 nM | 100 to 500 nM | > 200 nM | > 100 nM | 
16 | Cc1cc(Nc2nc(C(O)c3ccc(F)cc3)nc3cc(OCC(=O)O)ccc23)n[nH]1 (racemic) [Example 44, (R,S)-2-(2-((4-fluorophenyl)(hydroxy)methyl)-4-(5-methyl-1H-pyrazol-3-ylamino)quinazolin-7-yloxy)acetic acid] | ≤ 1 nM | > 500 nM | > 200 nM | ≤ 10 nM | 
17 | Cc1cc(Nc2nc(C(O)c3ccc(F)cc3)nc3c(C)cccc23)n[nH]1 (racemic) [Example 46, (R,S)-(4-fluorophenyl)(8-methyl-4-(5-methyl-1H-pyrazol-3-ylamino)quinazolin-2-yl)methanol] | ≤ 1 nM | 100 to 500 nM | > 200 nM | 10 to 100 nM | 
18 | Cc1cc(Nc2nc(C(F)(F)c3ccc(F)cc3)nc3cc(CS(C)(=O)=O)ccc23)n[nH]1 [Example 50, 2-(difluoro(4-fluorophenyl)methyl)-N-(5-methyl-1H-pyrazol-3-yl)-7-(methylsulfonylmethyl)quinazolin-4-amine] | ≤ 1 nM | ≤ 100 nM | > 200 nM | ≤ 10 nM | 
19 | Fc1ccc(C(F)(F)c2nc(Nc3cc(C4CC4)[nH]n3)c3ccccc3n2)cc1 [Example 10, N-(5-cyclopropyl-1H-pyrazol-3-yl)-2-(difluoro(4-fluorophenyl)methyl)quinazolin-4-amine] | 1 to 10 nM | ≤ 100 nM | > 200 nM | ≤ 10 nM | 
20 | Cc1ccc2c(Nc3cc(C)[nH]n3)nc(C(F)(F)c3ccc(F)cc3)nc2c1 [Example 26, 2-(difluoro(4-fluorophenyl)methyl)-7-methyl-N-(5-methyl-1H-pyrazol-3-yl)quinazolin-4-amine] | ≤ 1 nM | ≤ 100 nM | > 200 nM | ≤ 10 nM | 
21 | Cc1cc(Nc2nc(C(=O)c3ccc(F)cc3)nc3ccccc23)n[nH]1 [Example 3, (4-fluorophenyl)(4-(5-methyl-1H-pyrazol-3-ylamino)quinazolin-2-yl)methanone] | ≤ 1 nM | ≤ 100 nM | > 200 nM | 10 to 100 nM | 
22 | COc1ccc2c(Nc3cc[nH]n3)nc(C(O)c3ccc(F)cc3)nc2c1 (racemic) [Example 29, (R,S)-(4-(1H-pyrazol-3-ylamino)-7-methoxyquinazolin-2-yl)(4-fluorophenyl)methanol] | ≤ 1 nM | ≤ 100 nM | > 200 nM | 10 to 100 nM | 
23 | (4-(1H-pyrazol-3-ylamino)quinazolin-2-yl)bis(4-fluorophenyl)methanol [Example 48] | > 10 nM |  | > 200 nM | > 100 nM | > 500 nM
